# Entries after “also recorded” stand apart in the source; their conditions may differ. Like-named read-outs stand apart in the source and are kept apart here.
# B1: HCS: amidase purified from Cupriavidus sp. KNK-J915 strain (FERM BP-10739), amino acid sequence SEQ ID NO:1 (protein, listed as Cupriavidus sp.)
# chain: MPTDIQTLQTRLHDGAVSRADVIAQAAQHAQQPDAHAVFLHTTFDTAAQVAKAADAACLAGKPLHPLAGLPVSVKDLFNIAGEASRAGSPVRSDALAATADATVVRRLRESGAALVGRTNMTEFAFSGVGINPHFGTPVNPADKQVARIPGGSSSGAAVSVALGLAVAGLGSDTGGSIRIPAALCGLTGFKPTARRVPLDGAFPLSYTLDTACAMARTVQDCVLVDSVIADQAVLPVIKGAAGIRLAIPRQVLLDDLDDTVARAFDRALGRLSAAGVQIEHIDLPELAELATINASGGFTAAEAHAIHRHVLATRREQYDPRVASRIDRGAAMSAADYVDLMRARLDWITRVAARLEGFDAVACPTVPMVAPPIAPLVADDALFFHTNALLLRNTSAFNFLDGCSISLPCHQPDELPVGLMLSHGALRDAQLLGTAIALESIVKPAA
# Columns and labels:
# purified enzyme (HCS) = experiment: Selective hydrolysis of racemic carboxylic acid amides with the purified enzyme solution (Examples 8 to 10); type: biochemical, Cupriavidus sp. KNK-J915; conditions: 100 mM phosphate buffer pH 7.0, 30° C.; for conversion ratio: 1% substrate; for optical purity: product acid, 1% racemic substrate
# Description: To 100 mM phosphate buffer (pH 7.0) were added 1% racemic pipecolic acid amide and the purified enzyme solution obtained in Example 1, and allowed to react at 30° C. Then high speed liquid chromatography analysis was conducted to determine the conversion ratio (%) and optical purity (% e.e.). […] Conversion ratio (%)=P/(S1+P)×100
# (§1) (P: amount of product (mol), S1: amount of residual substrate (mol)) Optical purity (% e.e.)=(A−B)/(A+B)×100
# (§2) (A represents the amount of the target enantiomer, and B represents the amount of the corresponding enantiomer.)
# To 100 mM phosphate buffer solution (pH 7.0) were added 1% racemic indoline carboxylic acid amide and the purified enzyme solution obtained in Example 1. The obtained mixture was allowed to react at 30° C., and then the substrate and product in the reaction liquid were converted into derivatives with acetic anhydride. The conversion ratio (%) and optical purity (% e.e.) were determined by high speed liquid chromatography analysis of the obtained derivatives.
# To 100 mM phosphate buffer (pH 7.0) were added 1% racemic phenyl propionic acid amide and the purified enzyme solution obtained in Example 1, and allowed to react at 30° C. The conversion ratio (%) and optical purity (% e.e.) were determined by high speed liquid chromatography analysis.
# HCS = experiment: Substrate specificity of HCS; type: biochemical, Cupriavidus sp. KNK-J915; conditions: for Relative activity (%): activity on (R,S)-nipecotamide set to 100, 1% substrate, 30° C., 100 mM phosphate buffer pH 7.0
# Description: Next, the substrate specificity of HCS was analyzed. The substrate compound was added in a form of a 1% solution. The enzyme reaction was allowed to proceed at 30° C. in 100 mM phosphate buffer (pH 7.0). The resultant solution was analyzed under the high speed liquid chromatography analysis conditions A described in Example 1 or the high speed liquid chromatography analysis conditions B shown below.
# High Speed Liquid Chromatography Analysis Condition B
# Column: SUMICHIRAL OA-5000 (4.6 mmφ×150 mm, product of Sumika Chemical Analysis Service, Ltd.)
# Eluant: 2 mM CuSO4 aqueous solution
# (§3) Column temperature: 30° C.
# Measurement wavelength: 254 nm
# [1] = test system: putative amidase derived from Ralstonia eutropha JMP134 strain; experiment: Selective hydrolysis of S-enantiomer in racemic N-benzylnipecotamide with culture solution of E. coli HB101 (pNRE); type: biochemical
# Excerpt: Primer 7 (SEQ ID NO:10 in the sequence listing) having the NdeI site added to the initiation codon site, and primer 8 (SEQ ID NO:11 in the sequence listing) having an SacI site immediately downstream of the termination codon were synthesized based on the base sequence (SEQ ID NO:9 in the sequence listing) encoding the putative amidase derived from Ralstonia eutropha JMP134 strain, which has high sequence identity to the base sequence of the present invention derived from Cupriavidus sp. KNK-J915 (FERM BP-10739) determined in Example 3. An amount of 50 μl of a buffer for ExTaq was prepared. This buffer contained the two primers (primer 7 and primer 8, each 50 pmol), chromosomal DNA derived from Ralstonia eutropha JMP134 strain (10 ng), dNTP (each 10 nmol) and ExTaq (2.5 U, product of TAKARA SHUZO Co., Ltd.). Heat denaturation (97° C., 1 minute), annealing (60° C., 1 minute), and an extension reaction (72° C., 1.5 minutes) were repeated for 30 cycles. The reaction fluid was cooled to 4° C. and subjected to agarose gel electrophoresis to confirm amplification of the DNA. […]
# To 100 mM phosphate buffer (pH 7.0) were added 1% racemic N-benzylnipecotamide and the culture solution of E. coli HB101 (pNRE) obtained in Example 11, and allowed to react at 30° C. Thereafter, the conversion ratio (%) and optical purity (% e.e.) were determined by high speed liquid chromatography analysis. […]
# E. coli HB101 (pNCS) = experiment: Selective hydrolysis of S-enantiomer in racemic nipecotamide with culture solution of E. coli HB101 (pNCS); type: biochemical, Escherichia coli; conditions: pH 8.0, 25 hours, 45° C.; for optical purity: from racemic nipecotamide
# Description: An amount of 10.1 g of racemic nipecotamide was dissolved in water to prepare a substrate solution having a pH adjusted to 8.0. To 200 ml of the prepared substrate solution was added 2 ml of a culture solution obtained by culturing E. coli HB101 (pNCS) as in Example 6, and stirred for 25 hours at 45° C. After completion of the reaction, the reaction liquid was heated for 30 minutes at 70° C., and centrifuged to remove solid matters including cells. Subsequently, the substrate and the product in the reaction liquid were converted into derivatives with benzyl chloroformate. The obtained derivatives were analyzed by high speed liquid chromatography to determine the conversion ratio (%) and optical purity (% e.e.). […] Conversion ratio (%)=P/(S1+P)×100
# as §1, §2
# High Speed Liquid Chromatography Analysis Condition
# [Analysis of Conversion Ratio]
# (§4) Column: YMC-A303 (4.6 mmφ×250 mm, product of YMC Co., Ltd.)
# Eluant: 20 mM phosphate aqueous solution (pH 2.5)/acetonitrile=7/3
# Column temperature: 35° C.
# (§5) Measurement wavelength: 210 nm
# [Optical Purity Analysis]
# Column: CHIRALPAK AD-RH (4.6 mmφ×150 mm, product of DAICEL CHEMICAL INDUSTRIES, LTD.)
# Column temperature: room temperature
# [2] = Amidase activity of purified enzyme (production of N-benzylnipecotic acid, HPLC); type: biochemical; conditions: 1% N-benzylnipecotamide, 100 mM phosphate buffer pH 7.0, 1 hour, 30° C.
# Description: In the following examples, the amidase activity was determined by the following procedure. To 100 mM phosphate buffer (pH 7.0) were added 1% N-benzylnipecotamide and an enzyme solution, and allowed to react for 1 hour at 30° C. Then, the solution was analyzed under high speed liquid chromatography analysis conditions A. Enzyme activity which produces 1 μmol of N-benzylnipecotic acid per 1 minute under these conditions was defined as 1 unit.
# High Speed Liquid Chromatography Analysis Condition A
# as §4
# Eluant: 20 mM phosphate aqueous solution (pH 2.5)/acetonitrile=9/1
# as §3, §5
# [3] = Optimum pH, optimum temperature and thermal stability of the amidase reaction of purified HCS; type: biochemical; conditions: stable at or below this temperature
# Description: The Optimum pH and optimum temperature of an amidase reaction of the purified enzyme obtained in Example 1, and thermal stability of the enzyme were determined by quantifying N-benzylnipecotic acid produced in the hydrolysis reaction using N-benzylnipecotamide as a substrate, by HPLC. For determination of the optimum pH, the reaction was allowed to proceed at each pH for 1 hour at 30° C., and stopped by addition of acetonitrile. The resultant solution was analyzed under the high speed liquid chromatography analysis conditions A described in Example 1. For determination of the optimum temperature, the reaction was allowed to proceed at each temperature for 1 hour, and stopped by addition of acetonitrile. The resultant solution was analyzed under the high speed liquid chromatography analysis conditions A described in Example 1. For determining the thermal stability, after incubation at each temperature for 30 minutes, the reaction was allowed to proceed for 1 hour, and stopped by addition of acetonitrile. The resultant solution was analyzed under the high speed liquid chromatography analysis conditions A described in Example 1.
Molecule,amidase activity of HCS on the substrate (in words) (HCS),Relative activity (%) (HCS),also measured
NC(=O)C1Cc2ccccc2N1 (centres unmarked),particularly strong amidase activity; also recorded: especially strong activity,64,conversion ratio (purified enzyme (HCS)): 39.2%
"O=C(NCc1ccccc1)C1CCCNC1 (racemic) [(R,S)-N-benzylnipecotamide]",particularly strong amidase activity; also recorded: especially strong activity,49,"conversion ratio ([1]; 1% substrate, 100 mM phosphate buffer pH 7.0, 30° C.): 50.1%"
"NC(=O)C(O)c1ccccc1 (racemic) [(R,S)-mandelic acid amide]",particularly strong amidase activity; also recorded: especially strong activity,49,–
"NC(=O)C1CCCNC1 (racemic) [(R,S)-nipecotamide]",particularly strong amidase activity; also recorded: especially strong activity,100,conversion ratio (E. coli HB101 (pNCS)): 50.2%
"CC(C(N)=O)c1ccccc1 (racemic) [(R,S)-phenyl propionic acid amide]",–,309,conversion ratio (purified enzyme (HCS)): 36.0%; amidase activity of HCS on the substrate (in words) (HCS; listed as phenyl propionic acid amide): particularly strong amidase activity; amidase activity of HCS on the substrate (in words) (HCS; listed as phenylpropionic acid amide): especially strong activity
"NC(=O)C1CCCCN1 (racemic) [(R,S)-pipecolic acid amide]",particularly strong amidase activity; also recorded: especially strong activity,34,conversion ratio (purified enzyme (HCS)): 18.3%
"CC(N)C(N)=O (racemic) [D,L-alanine amide]",–,0,–
"CC(C)CC(N)C(N)=O (racemic) [D,L-leucine amide]",–,0,–
"NC(=O)C(N)Cc1ccccc1 (racemic) [D,L-phenylalanine amide]",weak amidase activity,3.4,–
"NC(=O)C1CCCN1 (racemic) [D,L-proline amide]",–,0,–
"NC(=O)CC(N)c1ccccc1 (racemic) [D,L-β-phenylalanine amide]",–,0,–
O=C(O)[C@H]1Cc2ccccc2N1 [(R)-indoline carboxylic acid],–,–,optical purity (purified enzyme (HCS)): 97.8 % e.e.
NC(=O)[C@@H]1CCCNC1 [(R)-nipecotamide],–,–,optical purity (E. coli HB101 (pNCS)): 98.3 % e.e.
O=C(O)[C@H]1CCCCN1 [(R)-pipecolic acid],–,–,optical purity (purified enzyme (HCS)): 80.1 % e.e.
O=C(NCc1ccccc1)[C@@H]1CCCNC1 [(R)—N-benzylnipecotamide],–,–,"optical purity ([1]; residual amide, pH 7.0, 30° C.): 99.4 % e.e."
O=C(O)[C@H]1CCCNC1 [(S)-nipecotic acid],–,–,optical purity (E. coli HB101 (pNCS)): 97.1 % e.e.
C[C@H](C(=O)O)c1ccccc1 [(S)-phenyl propionic acid],–,–,optical purity (purified enzyme (HCS)): 89.1 % e.e.
NC(=O)c1ccccc1 [benzamide],weak amidase activity,5.4,–
CC(C)C(N)=O [isobutylamide],particularly strong amidase activity; also recorded: especially strong activity,230,–
CCC(N)=O [propionic acid amide],particularly strong amidase activity; also recorded: especially strong activity,59,–
B1,–,–,specific activity of the purified enzyme [2]: 1.7 U/mg-protein; Thermal stability: temperature at which stable [3]: ≤ 50 °C
